Laboratory results reported in patent US11332438B2, “Creatine prodrugs, compositions and methods of use thereof” (Ultragenyx Pharmaceutical Inc., priority 2017, dated 2022).
Entries after “also recorded” stand apart in the source; their conditions may differ.

Experiments:
[1] = Chemical stability in simulated intestinal fluid (SIF) without pancreatin; type: physicochemical; conditions: Table 2A, 50 μM prodrug
Description: Chemical stability of creatine prodrugs in phosphate buffered saline (PBS), simulated intestinal fluid (SIF) without pancreatin, simulated gastric fluid (SGF) without pepsin were determined by LC-UV, LC-CAD, LC-UV-CAD or LC-MS/MS as appropriate. Creatine prodrugs of the present disclosure (50 μM) were incubated at 37° C. according to described protocols and prodrug levels were compared between t=0, t=15, t=60, and t=120 mins by peak area ratio to determine the percentage remained at t=120 mins (2 h).
Protocol for PBS, SIF and SGF stability for screening:
Prodrugs (50 μM) were incubated in PBS, FaSSIF (Biorelevant) or FaSSGF (Biorelevant) at 37° C.

ARPE-19 cells = assay: Creatine prodrug uptake and d3-creatine release in ARPE-19 cells (Table 4A); type: cell-based, human; conditions: 50 μM, 6 h, cytosol fraction, corrected for total protein
Description: At the end of the incubation, supernatant will be collected from each well to assess prodrug recovery. Cells are then washed 3× with PBS. Plates, prodrugs in supernatant, prodrugs in serum-free medium are stored at −80° C. until harvest (within 5 days). On the day of extraction, 130 uL of lysis buffer (10 mM Tris pH 7.4) with EDTA-free protease inhibitors is added to each well and cells are removed using a cell scraper. Lysates are further homogenized using a handheld pestle and then centrifuged at 16,000 g, […], for 10 minutes to collect cytosol fraction. Pellets will be stored at −80° C. until further analysis. A 4× volume of stop solution (80% ACN/20% water) will be added to the cytosol fraction, supernatant and medium. Samples will be centrifuged at 15,890 g (13,000 rpm) at 4° C. for 10 mins. Supernatant will be collected and stored at −80° C. within 5 days prior to LC-MS/MS analysis. Dosing solutions for each prodrug (10 μM) will be assayed to verify concentration. Cells alone with vehicle will serve as controls to assess background signal for LC-MS/MS. Two independent runs of experiment will be conducted.
Nine fatty acid amide creatine prodrugs were tested in human ARPE-19 cells to assess prodrug uptake and d3-Cr release inside the cells. 50 μM of prodrug was incubated in culture medium with the cells and the cells were harvested at 6 h. Quantitation of prodrugs, d3-Cr (d3-creatine) and d3-Cm (d3-creatinine) in the cytosol fraction was corrected for total protein concentration.

[2] = Chemical stability in simulated gastric fluid (SGF) without pepsin; type: physicochemical; conditions: Table 2A, 50 μM prodrug
Summary of the method: (§1)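 Incubations used 50 μM compound at 37 °C in phosphate buffered saline, fasted simulated intestinal fluid without pancreatin, or fasted simulated gastric fluid without pepsin.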

[3] = Prodrug cleavage in human brain homogenates (HBH): d3-Cr release and d3-Crn cyclization; type: in vitro ADME; conditions: for Prodrug Cleavage Human BH d3-Crn release / Prodrug Cleavage Human BH net d3-Cr release: 200 μM prodrug, 3 h, % of nominal input; for Prodrug Cleavage Human BH net d3-Cr release: negative control subtracted
Description: (§2) For assessment of the ability of prodrugs to release creatine, and to release creatine preferentially to unwanted cyclization to creatinine, d3-labeled (deuterium labeled methyl group) prodrugs are incubated with brain homogenates (e.g., mouse, human) specially prepared to preserve FAAH activity or with rFAAH for direct cleavage study. The use of d3-labelled prodrugs is essential in order to distinguish prodrug-derived creatine (d3-creatine) from high concentrations of endogenous (non-labeled) creatine. […] Prodrugs are tested at final concentrations of 20 μM and 200 μM. Approximately 3-4 mg of homogenate is used for each reaction. Co-factor (NADPH) is included at a final concentration of 1 mM. FAAH activity is confirmed by conversion of 7-amino-4-methyl Coumarin-Arachidonamide to 7-amino-4-methyl Coumarin by fluorescent assay. Negative controls include incubations without brain homogenate/rFAAH (but with NADPH) or 65° C. heat inactivated brain homogenate/rFAAH to assess non-enzymatic prodrug cleavage under the conditions of the assay and FAAH inhibitor […] at the concentration of 1 μM. Prodrug incubations are prepared by addition of 8 μL of prodrug stock solution (500 or 5000 μM in DMSO or DMSO/methanol) to assay buffered, followed by addition of brain homogenate/rFAAH. […] The samples are centrifuged at 15890×g for 10 minutes at 4° C., followed by transfer of the supernatants for storage at −20° C. pending LC-MS/MS analysis. Sample supernatants are analyzed by LC-MS/MS for determination of d3-prodrug, d3-creatine and d3-creatinine levels.
(§3) Deuterated creatine prodrugs were tested in 3 different in vitro assays to assess d3-creatine (d3-Cr) release and cyclization to form d3-creatinine (d3-Crn). These assays were 1) direct cleavage with recombinant human FAAH enzyme (rFAAH), 2) cleavage in mouse brain homogenates (MBH), and 3) human brain homogenates (HBH).
(§4) Creatine prodrug cleavage efficiency was determined by percentage of net d3-Cr release in μM (positive reaction subtracted from negative control of no brain homogenate/rFAAH or inactivated brain homogenate/rFAAH) over nominal input concentration of 200 μM prodrug at 3 h. Propensity for creatinine cyclization was determined by percentage of d3-Crn generated in μM in positive reaction over nominal input concentration of 200 μM prodrug at 3 h.

[4] = Chemical stability in phosphate buffered saline (PBS); type: physicochemical; conditions: Table 2A, 50 μM prodrug
Summary of the method: as §1

[5] = target: T1, recombinant human FAAH enzyme (rFAAH) (Homo sapiens, UniProt O00519); assay: Direct prodrug cleavage with recombinant human FAAH enzyme (rFAAH): d3-Cr release and d3-Crn cyclization; type: biochemical; conditions: 200 μM prodrug, 3 h, % of nominal input; for Prodrug Cleavage rFAAH net d3-Cr release: negative control subtracted
T1 sequence (O00519 1-579): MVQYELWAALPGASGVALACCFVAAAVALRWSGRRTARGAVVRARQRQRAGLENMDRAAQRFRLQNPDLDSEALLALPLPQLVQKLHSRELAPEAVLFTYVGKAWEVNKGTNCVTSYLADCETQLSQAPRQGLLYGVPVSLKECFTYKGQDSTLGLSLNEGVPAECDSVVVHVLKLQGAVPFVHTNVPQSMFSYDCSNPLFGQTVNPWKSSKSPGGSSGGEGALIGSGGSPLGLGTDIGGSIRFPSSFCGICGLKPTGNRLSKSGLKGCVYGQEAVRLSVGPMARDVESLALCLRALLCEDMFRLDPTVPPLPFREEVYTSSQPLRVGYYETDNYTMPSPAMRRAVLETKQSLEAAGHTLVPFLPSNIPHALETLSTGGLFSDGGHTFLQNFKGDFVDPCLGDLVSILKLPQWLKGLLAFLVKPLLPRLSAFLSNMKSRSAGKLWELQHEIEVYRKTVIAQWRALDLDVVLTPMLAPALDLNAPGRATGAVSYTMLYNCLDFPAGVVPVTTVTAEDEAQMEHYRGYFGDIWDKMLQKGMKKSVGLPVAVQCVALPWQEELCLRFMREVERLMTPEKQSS
Description: as §2, §3, §4

[6] = In vivo IV dosing in CrT KO mice: prodrug, d3-Cr and d3-Crn in brain (Table 5); conditions: brain, CrT KO mice
Description: A creatine prodrug is administered as an intravenous bolus injection to groups of three to six adult male CD1 mice at an appropriate creatine prodrug dose equivalent per kg body weight. Animals are conscious at the time of the experiment. Blood samples (0.3 mL) are obtained via a jugular vein cannula at intervals over 8 hours following IV dosing. Blood is processed into plasma, then the plasmais immediately frozen at −80° C. until analyzed by LC-MS/MS. Samples may also be taken form the CSF or other appropriate biological fluid. Brains were collected and flash frozen immediately in liquid nitrogen. Brains were homogenized in 100 mM KPI buffer with a cocktail of anti-proteases on the same day as the sample preparation required for LC-MS/MS analysis.
Several prodrugs with either free COOH group and ester linkage and macrocycles were selected for IV dosing in animal study to assess PK and d3-Cr release in brain in vivo. Prodrugs were IV dosed in CrT KO mice at 10, 15, or 25 mg/kg in animal studies. Mouse brain homogenates (MBH) were prepared from brains collected from mice after dosing. Levels of prodrug, d3-Cr and d3-Crn were quantified in brain and expressed in brain concentration (for macrocycle prodrugs) or AUC (for linear prodrugs) over time. Very few prodrugs were detected in MBH.

[7] = d3-Creatine and d3-creatinine concentration in CrT KO mice brain after IV bolus dose (FIGS. 3 and 4, Table 6); type: in vivo; conditions: CrT KO mice brain, 8 h after IV bolus dose
Description: The brain concentrations of d3-creatine and d3-creatinine was measured in CrT KO mice following 10 mg/kg single dose IV bolus dose of compound 14 and 15 (FIGS. 3 and 4). As shown by FIG. 3, brain d3-creatine concentration was higher following administration of compound 15 compared to compound 14. […] Without bound to any theory, the macrocyclic compound 15 prodrug reduces d3-creatine cyclization to d3-creatinine when compared to linear compound 14 prodrug.
The concentration of d3-creatine in CrT KO mice brain were also measured for other compounds disclosed in the present application as shown in Table 6. The concentrations of d3-creatine, d3-creatinine and creatine prodrugs are measured by LC-MS/MS. The brain sample is homogenized with 4× (weight to volume) of KPI 100 mM buffer containing anti-proteases and anti-phosphatases (if needed). 50 μl of brain homogenate is then de-proteinized using 4× volume/volume of a solution containing 80% acetonitrile and 20% water with bucetin, d5-Cr (internal standard). The plate is then spun at 4000 rpm, 10 minutes, 4° C. and samples are transferred to a new plate for bioanalysis. Each analyte in each sample was quantitated against a curve in matching biomatrix using an authentic standard.

[8] = in vitro cleavage assays (Table 3A)

| Concentration of d3-Cr in CrT KO mice brain [7] | Structure (SMILES) | Chemical Stability SIF, no enzyme % T0 at 2 hours at 37 °C. [1] | d3-Cr, Cellular Uptake (ARPE-19 cells) | d3-Crn, Cellular Uptake (ARPE-19 cells) | prodrug, Cellular Uptake (ARPE-19 cells) | Chemical Stability SGF, no enzyme % T0 at 2 hours at 37 °C. [2] | Prodrug Cleavage Human BH d3-Crn release [3] | Prodrug Cleavage Human BH net d3-Cr release [3] | Chemical Stability PBS % T0 at 2 hours at 37 °C. [4] | Prodrug Cleavage rFAAH d3-Crn release [5] | Prodrug Cleavage rFAAH net d3-Cr release [5] | d3-Cr release in vitro (in words) [3, 8] | d3-Crn (creatinine) cyclization in vitro (in words) [3, 8] | d3-Cr/d3-Crn release ratio in vivo (in words) [6] |
| --- | --- | --- | --- | --- | --- | --- | --- | --- | --- | --- | --- | --- | --- | --- |
|  | [2H]C([2H])([2H])N(CC(=O)[O-])C(=N)NC(=O)CCCCCCCCCCCCC.[Li+] [Compound 7, Lithium 2-(1-trideuteriomethyl-3-tetradecanoylguanidino) Acetate] | 77% | 18.6 nmol/mg protien | <0.2 nmol/mg protien | 13.1 nmol/mg protien | 63% | 0.8% | 50.8% | 90% | 1.7% | 146.0% |  |  |  |
|  | Cl.[2H]C([2H])([2H])N(CC(=O)OC(C)C)C(=N)NC(=O)CCCCCCCCCCCC [Compound 10-HCl] | 46% |  |  |  | 83% | 251.5% | 4.3% | 11% | 217.0% | 1.2% | small amount of d3-Cr | predominantly cyclized into creatinine; also recorded: predominantly creatinine cyclization | favorable d3-Cr/d3-Crn ratio |
| BLOQ | [2H]C([2H])([2H])N1CC(=O)OC(CCCCC)CCCCCC(=O)NC1=N (stereo not drawn) [Compound FF, 5-Imino-4-trideuteriomethyl-13-pentyl-1-oxa-4,6-diazacyclotridecane-2,7-dione] |  |  |  |  |  |  |  |  |  |  |  |  |  |
